Where two headings read alike, the source gives them in different places.
What was measured:
[1] = system: phospho-ERK1/2 (Thr202/Tyr204) in KYSE-520 cells; assay: Phospho-ERK cellular assay (TR-FRET); format: cell-based; conditions: Homo sapiens, KYSE-520 cells, 2 h at 37° C., read-out: pERK IC50
Method: ERK phosphorylation was detected using the “Advanced phospho-ERK1/2 (Thr202/Tyr204)” TR-FRET kit (Cisbio, Cat #64AERPEG/H), following the manufacturer reagents and instructions.
Briefly, 20.000/well KYSE-520 cells (DSMZ ACC 371) were plated in 6 μL RPMI-1640 (Invitrogen) growth medium, into 384 white low-volume high base TC microplates (Greiner). After an overnight incubation, cells were treated with DMSO serial diluted compounds and incubated for 2 h at 37° C. After incubation, 2 μL/well of 4X Lysis Buffer (Cisbio 64KL1FDF), were added and incubated with cells for 30 min on gentle shaking. Finally, lysates were added with 2 μL/well of Eu cryptate (donor) and D2 (acceptor) conjugated antibodies (as provided by the Cisbio kit #64AERPEG/H) diluted 1:100 in Detection Buffer (as provided by the Cisbio kit #64AERPEG/H). Plates were then sealed and incubated at rt in the dark. After an overnight incubation, the TR-FRET signal was detected on a suitable reader (Envision, PerkinElmer). The lower the TR-FRET signal the higher the higher the SHP2 inhibition in cells.
The activity of each compound dilution was calculated as percentage between vehicle DMSO treated cells and no cells, 0% inhibition and 100% inhibition respectively. The percentage activity is fitted against the compound dilutions with a four-parameter logistic regression. The inflection point (i.e. the concentration at which half-maximal inhibition is achieved) is the IC50.

[2] = target: T1, SHP-2 enzyme (Met1-Leu525) (Homo sapiens, UniProt Q06124); assay: SHP2 inhibition enzymatic assay (DiFMUP substrate, IRS1 peptide activation); format: biochemical; conditions: 0.5 nM SHP-2, 500 nM IRS1 peptide, 75 μM DiFMUP; read-out: SHP2wt - IC50
T1 construct: synthetized by Origene, Met1-Leu525, cat #TP750155; purchased Origene TP750155
T1 sequence (Q06124 1-525): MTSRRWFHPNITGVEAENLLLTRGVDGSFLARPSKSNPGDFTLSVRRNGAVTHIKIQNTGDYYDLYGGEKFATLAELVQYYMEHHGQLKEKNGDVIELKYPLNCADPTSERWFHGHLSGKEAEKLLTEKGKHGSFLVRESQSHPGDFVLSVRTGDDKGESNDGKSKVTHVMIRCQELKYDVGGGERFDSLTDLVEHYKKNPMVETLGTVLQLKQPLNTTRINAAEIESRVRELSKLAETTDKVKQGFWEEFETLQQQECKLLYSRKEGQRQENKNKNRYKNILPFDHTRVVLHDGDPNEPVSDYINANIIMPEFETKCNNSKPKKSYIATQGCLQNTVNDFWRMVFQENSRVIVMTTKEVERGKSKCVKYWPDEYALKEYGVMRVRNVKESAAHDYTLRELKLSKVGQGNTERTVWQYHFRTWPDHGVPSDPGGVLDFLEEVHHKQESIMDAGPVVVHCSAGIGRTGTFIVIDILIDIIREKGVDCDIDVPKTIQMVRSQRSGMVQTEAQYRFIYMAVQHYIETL
Method: Assay volume of 20 μL/well was assembled in 384 well black polystyrene low-binding microplates (Greiner), using the following buffer: 60 mM HEPES pH 7.2, 75 mM NaCl, 75 mM KCl, 1 mM EDTA pH 8, 0.05% tween-20, 5 mM DTT. The SHP-2 enzyme (synthetized by Origene, Met1-Leu525, cat #TP750155) was used at a final concentration of 0.5 nM.
Briefly, DMSO serially diluted testing compounds were transferred to the bottom of the assay plate. SHP2 was then added together with the IRS1 peptide 30 min post incubation, the DiFMUP substrate was added to the reaction and incubated 30 min at rt. […] The fluorescence was detected by a microplate reader (Envision, PerkinElmer) according to the DiFMUP excitation and emission wavelength. The lower the fluorescence the higher the SHP2 inhibition.
The percentage inhibition is fitted against the compound dilutions with a four-parameter logistic regression. The inflection point (i.e. the concentration at which half-maximal inhibition is achieved) is the IC50.

Work on `N#Cc1cn2ccc(Sc3cnc(N4CCC5(CC4)Cn4nccc4[C@H]5N)cn3)c(Cl)c2n1` [Example 57, (S)-7-((5-(4′-amino-4′H,6′H-spiro[piperidine-4,5′-pyrrolo[1,2-b]pyrazol]-1-yl)pyrazin-2-yl)thio)-8-chloroimidazo[1,2-a]pyridine-2-carbonitrile] yielded an IC50 ([1]; KYSE-520, 2 h) of under 100 nM and an IC50 [2] of at most 50 nM.
In the case of `N[C@@H]1c2ccnn2CC12CCN(c1cnc(SC3=C(Cl)C4=NC(=O)CN4C=C3)cn1)CC2` [Example 58, (S)-7-((5-(4′-amino-4′H,6′H-spiro[piperidine-4,5′-pyrrolo[1,2-b]pyrazol]-1-yl)pyrazin-2-yl)thio)-8-chloroimidazo[1,2-a]pyridin-2(3H)-one], the IC50 [1] is reported as 100 to 500 nM and the IC50 [2] is reported as at most 50 nM.
In the case of `N[C@@H]1c2ccnn2CC12CCN(c1cnc(Sc3ccnc(-n4ccnc4)c3Cl)cn1)CC2` [Example 59, (S)-1-(5-((3-chloro-2-(1H-imidazol-1-yl)pyridin-4-yl)thio)pyrazin-2-yl)-4′H,6′H-spiro[piperidine-4,5′-pyrrolo[1,2-b]pyrazol]-4′-amine], the IC50 ([1]; KYSE-520, 2 h) is reported as under 100 nM and the IC50 [2] is reported as at most 50 nM.
`Nc1nc(N2CCC3(CC2)Cn2nccc2[C@H]3N)cnc1Sc1ccnc(-n2cccn2)c1Cl` [Example 60, (S)-1-(6-amino-5-((3-chloro-2-(1H-pyrazol-1-yl)pyridin-4-yl)thio)pyrazin-2-yl)-4′H,6′H-spiro[piperidine-4,5′-pyrrolo[1,2-b]pyrazol]-4′-amine] gave an IC50 ([1]; KYSE-520, 2 h) of under 100 nM and an IC50 [2] of at most 50 nM.
For `N[C@@H]1c2ccnn2CC12CCN(c1cnc(Sc3ccnc(-n4cc(F)cn4)c3Cl)cn1)CC2` [Example 61, (S)-1-(5-((3-chloro-2-(4-fluoro-1H-pyrazol-1-yl)pyridin-4-yl)thio)pyrazin-2-yl)-4′H,6′H-spiro[piperidine-4,5′-pyrrolo[1,2-b]pyrazol]-4′-amine], the IC50 ([1]; KYSE-520, 2 h) was under 100 nM and the IC50 [2] was at most 50 nM.
`N[C@@H]1c2ccnn2CC12CCN(c1cnc(Sc3ccnc(-n4cccc4)c3Cl)cn1)CC2` [Example 62, (S)-1-(5-((3-chloro-2-(1H-pyrrol-1-yl)pyridin-4-yl)thio)pyrazin-2-yl)-4′H,6′H-spiro[piperidine-4,5′-pyrrolo[1,2-b]pyrazol]-4′-amine] was tested, and the IC50 ([1]; KYSE-520, 2 h) was under 100 nM and the IC50 [2] was at most 50 nM.
`Nc1nc(N2CCC3(CC2)Cn2nccc2[C@H]3N)cnc1Sc1ccnc(-n2ccnc2)c1Cl` [Example 63, (S)-1-(6-amino-5-((3-chloro-2-(1H-imidazol-1-yl)pyridin-4-yl)thio)pyrazin-2-yl)-4′H,6′H-spiro[piperidine-4,5′-pyrrolo[1,2-b]pyrazol]-4′-amine] gave an IC50 ([1]; KYSE-520, 2 h) of under 100 nM and an IC50 [2] of at most 50 nM.
For `Cc1cn2ccc(Sc3ncc(N4CCC5(CC4)Cn4nccc4[C@H]5N)nc3N)c(Cl)c2n1` [Example 64, (S)-1-(6-amino-5-((8-chloro-2-methylimidazo[1,2-a]pyridin-7-yl)thio)pyrazin-2-yl)-4′H,6′H-spiro[piperidine-4,5′-pyrrolo[1,2-b]pyrazol]-4′-amine], the IC50 ([1]; KYSE-520, 2 h) was under 100 nM and the IC50 [2] was at most 50 nM.
Compound `NC(=O)c1cnn(-c2nccc(Sc3cnc(N4CCC5(CC4)Cn4nccc4[C@H]5N)cn3)c2Cl)c1` [Example 65, (S)-1-(4-((5-(4′-amino-4′H,6′H-spiro[piperidine-4,5′-pyrrolo[1,2-b]pyrazol]-1-yl)pyrazin-2-yl)thio)-3-chloropyridin-2-yl)-1H-pyrazole-4-carboxamide] has an IC50 ([1]; KYSE-520, 2 h) of under 100 nM and an IC50 [2] of at most 50 nM.
Compound `NC(=O)c1ccn(-c2nccc(Sc3cnc(N4CCC5(CC4)Cn4nccc4[C@H]5N)cn3)c2Cl)c1` [Example 66, (S)-1-(4-((5-(4′-amino-4′H,6′H-spiro[piperidine-4,5′-pyrrolo[1,2-b]pyrazol]-1-yl)pyrazin-2-yl)thio)-3-chloropyridin-2-yl)-1H-pyrrole-3-carboxamide] has an IC50 ([1]; KYSE-520, 2 h) of under 100 nM and an IC50 [2] of at most 50 nM.

Reference: patent publication US20240239799A1, “(S)-1-(5-((PYRIDIN-3-YL)THIO)PYRAZIN-2-YL)-4'H,6'H-SPIRO[PIPERIDINE-4,5'-PYRROLO [1,2-B]PYRAZOL]-4'-AMINE DERIVATIVES AND SIMILAR COMPOUNDS AS SHP2 INHIBITORS FOR THE TREATMENT OF E.G. CANCER” (C.N.C.C.S. S.C.A.R.L. COLLEZIONE NAZIONALE DEI COMPOSTI …, priority 2021, published 2024)
